# Key:
# [1] = system: Helicoverpa punctigera larvae; assay: Bioassay with Haricot bean artificial diet, growth and development of larvae; format: in vivo
# Method: Helicoverpa punctigera larvae were raised on artificial diets based on Haricot beans (Teakle et al. (13)). One litre of diet was composed of 234 g Haricot beans, 14 g agar, 700 ml water, 35 g Tortula yeast, 50 g wheatgerm, 3.5 g ascorbic acid, 1.1 g sorbic acid, 2.2 g p-hydroxybenzoic acid methyl ester, 0.2 g ampicillin, 0.2 g streptomycin, 16 mg prochloraz. The beans were soaked overnight in water, drained and homogenized to a fine paste. Wheatgerm, yeast and 300 ml of water were added. The agar was dissolved in 400 ml of boiling water and added to the mixture. The mixture was cooled to 50° C. before the addition of the remaining ingredients. The blended diet was poured into trays and after setting was used immediately or stored at −20° C. for no longer than two weeks. The test diet was supplemented with the Kalata B1 peptide (0.825 μmol/g of diet). Twenty newly emerged neonates were added to each diet and mortality was recorded every two days. Weight gain was recorded at the sixth day and then every second day thereafter. The larvae were reared in 1.5 ml eppendorfs microfuge tubes (one larva/tube) until day eight when they were transferred to individual plastic containers with lids (Solo (trademark) plastic portion cups, 28 ml) at the eight day. Larvae were fed small amounts of diet (40 mg) initially that was replaced as required to provide a continuous supply. The larvae were kept in a temperature controlled room at 25±1° C., 16:8 (L:D).
# Most larvae on the control diet, however, had achieved fifth instar (FIGS. 13B, C).
# [2] = system: Helicoverpa armigera larvae; assay: Bioassay with cotton leaf artificial diet, growth and development of larvae; format: in vivo
# Method: Helicoverpa armigera larvae were raised on an artificial diet based on cotton leaves. One hundred ml of cotton leaf artificial diet was composed of 3 g cotton leaf powder (see below), 2 g Tortula yeast, 2.4 g wheat germ, 3.2 g ascorbic acid, 0.08 g sorbic acid, 0.16 g paraben (mould inhibitor), 0.08 ml linseed oil, 0.16 ml wheatgerm oil, 0.028 g ampicillin, 0.028 g streptomycin, 3.2 g agar and 80 ml water. Cotton leaf powder was prepared from freshly picked young, healthy cotton leaves which had been rapidly frozen in liquid nitrogen and freeze dried before they were ground to a fine powder using a mortar and pestle. Test diets contained the cyclic Kalata B1 peptide at 0.15% w/v of diet (high kalata) or 0.03% w/v of diet (low kalata), linear peptide (backbone chain opened between residues 7 and 8 [see FIG. 1A] at 0.15% w/v of diet. The control diet contained casein at 0.15% w/v of diet. The diet was mixed and dispensed as described for the Haricot bean diet and the bioassay was conducted in the same manner.
# Newly hatched larvae were fed on an artificial diet based on cotton leaves, with and without added Kalata B1. […] Larvae on the Kalata B1 diet were about 18% of the size of those fed on the control diet.
# Kalata peptides isolated from leaves are normally cyclic. The inventors sought to determine whether cyclization was essential for biological activity against insects. Newly hatched H. armigera larvae were added to an artificial diet based on cotton leaves which had been supplemented with cyclic Kalata B1 at either 0.15% w/v of diet or 0.03% w/v of diet. Growth of these larvae was compared to growth of larvae on diet with no added peptide or with added linear Kalata B1 at 0.15% w/v of the diet. Linear Kalata B1 is identical to cyclic Kalata B1 except the backbone chain is open between residues 7 and 8 [see FIG. 1A].
substance,measurement,setting,value
"Kalata B1: 29 amino acid peptide with cyclic backbone and cystine knot from O. affinis (SEQ ID NO: 41) (cyclo(VCGETCVGGTCNTPGCTCSWPVCTRNGLP); disulfide (positions not given here); also: cystine knot, pairings not given here; listed as Oldenlandia affinis)",instar stage of development reached by survivors after 16 days,"[1]; 0.825 μmol/g of diet, 16 days, most control larvae at fifth instar",none of the 12 survivors had progressed past the first instar stage of development
same,larvae that failed to survive past day 16,"[1]; 0.825 μmol/g of diet, day 16",50%
same,mortality in the first six days,"[1]; 0.825 μmol/g of diet, first six days, twenty neonates",No mortality
same,size of larvae after 16 days on artificial diet,"[1]; 16 days, control diet ~30 mm (FIG. 13C)",~5 mm
same,effect on the development of larvae,[1]; Haricot bean diet with peptide 0.825 μmol/g of diet,significant effect
same,size of larvae relative to those fed on the control diet,"[2]; cotton leaf diet with added Kalata B1, 12 days",about 18%
same,instar stage of development reached after 12 days,"[2]; cotton leaf diet, 12 days, control larvae at third to fourth instar",failed to progress past the first instar stage of development
same,effect on growth compared with the linear form,[2]; cyclic form at one fifth the concentration of the linear form (0.03% vs 0.15% w/v of diet),more significant effect on growth
